Data reported in patent US20220202905A1, “COMPOSITION FOR PREVENTING OR TREATING NEUROTROPHIC KERATITIS WHICH CONTAINS PACAP PEPTIDE OR STABILIZED PACAP PEPTIDE” (SENJU PHARMACEUTICAL CO., LTD., priority 2019, published 2022).
Square brackets hold non-standard residues; d marks the D form. Peptide text beside a SMILES is read from it. Ala(1H-tetrazol-5-yl) = N[C@@H](Cc1nnn[nH]1)C(=O)O

Assays:
[1] = tested on: neurotrophic keratitis rat model; assay: Corneal nerve staining, nerve density in neurotrophic keratitis rat model; assay type: in vivo; details: 0.1% eye drops, capsaicin-treated rats; method and result in present tense
Procedure: (§1) A rat model was prepared, by subcutaneous administration of capsaicin in the dorsal region of rats, which elicited corneal nerve injury and attenuated corneal sensation while also leading to decreased lacrimal fluid volume and superficial punctate keratitis (SPK) (NPL 3: Investigative Ophthalmology & Visual Science (2012), vol. 53, No. 13, p. 8280-8287). The rats were given PACAP27 and its stabilized peptide eye drops, and the inhibiting effect on corneal damage was examined. The specific experiment method was as follows.
(§2) Capsaicin (product of Sigma) was dissolved in PBS containing 10% EtOH and 10% Tween80, and subcutaneously administered to the dorsal region of 4-day-old male Wistar/ST rats at a dose of 50 mg/kg·b·w.
The base was prepared by dissolving 0.3 g of trishydroxymethylaminomethane (Nacalai Tesque, Inc.) and 4.4 g of D(−)-mannitol (Nacalai Tesque, Inc.) in 100 mL of sterilized water, adding 1 N·HCl and adjusting the pH to 7. […] Each eye drops was stored at room temperature. […]
After euthanizing rats, the eye bulbs are extracted and immersed in Zamboni solution (product of Wako Pure Chemical Industries, Ltd.), and allowed to stand for 15 minutes at room temperature. […] The nerve density of the swirl structure in the nerve layer is quantified by conducting Sholl analysis using image analysis software (Image J).

[2] = tested on: rat trigeminal nerve cells; assay: Axon elongation effect on cultured rat trigeminal nerve cells; assay type: cell-based; details: 1 μM peptide, 24 hours; N=8; Dunnett's test vs control P<0.001; FIG. 5
Procedure: Rats (Sic: Sprague-Dawley, 17-day-old, including female and male) purchased from Japan SLC, Inc. were euthanized by carbon dioxide gas inhalation and the trigeminal ganglion was harvested. The harvested trigeminal ganglion was washed with Hanks' balanced salt solution (HBSS) and then treated with collagenase A (Roche) for 30 minutes at 37° C. A neuron dispersion (Wako) was then used according to protocol for dispersion of the cells. Debris removal solution (Miltenyi biotec) and Myelin removal beads II (Miltenyi biotec) were used according to protocol to remove the debris and myelin. After suspending the isolated trigeminal nerve cells in culture solution, they were seeded onto a polylysine/laminin-coated 8-well chamber slide (Corning) at 2.5×10^3 cells/well. The culture solution used was Neurobasal-A containing B27 supplement (final concentration: 2%) and GlutaMAX (final concentration: 2 mM) and penicillin/streptomycin (final concentration: 1%). The culturing conditions were a carbon dioxide concentration of 5%, an air concentration of 95%, a humidity of 100% and a temperature of 37° C. […] The control was replaced with peptide-free culture solution. Culture medium replacement was followed by further culturing for 24 hours.
The culture medium was replaced with peptide-containing culture solution, and the rat trigeminal nerve cells cultured for 24 hours were immersed in a 2% paraformaldehyde solution at room temperature for 20 minutes for fixing. The cells were washed with PBS, and then 2% bovine serum albumin containing 0.1% TritonX-100 was added and reaction was conducted for 30 minutes. After washing with PBS, it was reacted with phospho-neurofilament H antibody (Merck, MAB1592-C) specifically recognizing neurofilaments forming the neuron bodies and neurites, for 1 hour at room temperature. After reaction for 1 hour, a fluorescent-labeled secondary antibody (Invitrogen Corp., #A-11031) was reacted at room temperature for 1 hour for fluorescent staining of the sample, and the stained cells were observed under a fluorescent microscope. The stained cell image was captured as an image from the fluorescent microscope and loaded into a computer.
In order to evaluate the extent of neurite formation by the rat trigeminal nerve cells, cells with neurites having lengths of at least twice the cell body diameter in the stained cell image in the computer were counted as neurite-forming cells, and the percentage (%) of this number of cells over the total cell count was calculated (Otori Y. Wei J Y, Barnstable C J. Invest. Ophthalmol Vis Sci (1998) 39, 972-981). The significant difference with respect to the control was determined by Dunnett's test (P<0.001).

[3] = tested on: neurotrophic keratitis rat model; assay: Corneal sensation (Cochet-Bonnet) in neurotrophic keratitis rat model; assay type: in vivo; details: 0.1% eye drops, capsaicin-treated rats; method and result in present tense
Procedure: as §1, §2
The base was prepared by dissolving 0.3 g of trishydroxymethylaminomethane (Nacalai Tesque, Inc.) and 4.4 g of D(−)-mannitol (Nacalai Tesque, Inc.) in 100 mL of sterilized water, adding 1 N·HCl and adjusting the pH to 7. […] Each eye drops was stored at room temperature. Each eye drop was initially administered 3 weeks after administration of capsaicin, 3 times every day, in an amount of 10 μL for each eye.
Corneal sensation is measured using a Cochet-Bonnet corneal sensory meter (Handaya Shoten). […] This procedure is repeated 3 times, and the average value for the obtained filament lengths is recorded as the corneal sensation threshold (CST) for that individual.

[4] = tested on: neurotrophic keratitis rat model; assay: Superficial punctate keratitis (SPK) score in neurotrophic keratitis rat model; assay type: in vivo; details: 0.1% eye drops 3 times daily, evaluated 2 weeks after start of eye dropping; FIG. 4
Procedure: as §1
Capsaicin (product of Sigma) was dissolved in PBS containing 10% EtOH and 10% Tween80, and subcutaneously administered to the dorsal region of 4-day-old male Wistar/ST rats at a dose of 50 mg/kg·b·w. […]
SPK was evaluated 2 weeks after the start of eye dropping. […] The eye surface was then observed with a slit lamp microscope, and the degree of corneal damage was evaluated by the method of Murakami et al., Atarashii Ganka 21 (1):87-90 (2004). Specifically, the cornea was divided into 3 regions, the top, center and bottom, and a score was assigned to each region on the following scale, with the value of the total of the scores of the 3 regions being recorded as the SPK score. <Scale> 0: No punctate stains, 1: Sparse (separated punctate fluorescein stains), 2: Intermediate (between 1 and 3), 3: Dense (almost all punctate fluorescein stains adjacent).

SMILES | corneal nerve density (Sholl analysis) [1] | axon elongation (percentage of neurite-forming cells) [2] | corneal sensation threshold (CST) [3] | SPK score [4]
CC[C@H](C)[C@H](NC(=O)CNC(=O)[C@H](Cc1nnn[nH]1)NC(=O)[C@H](CO)NC(=O)[C@H](Cc1c[nH]cn1)NC(C)=O)C(=O)N[C@@H](Cc1ccccc1)C(=O)N[C@H](C(=O)N[C@@H](Cc1nnn[nH]1)C(=O)N[C@@H](CO)C(=O)N[C@@H](Cc1ccc(O)cc1)C(=O)N[C@@H](CO)C(=O)N[C@@H](CCCNC(=N)N)C(=O)N[C@@H](Cc1ccc(O)cc1)C(=O)N[C@@H](CCCNC(=N)N)C(=O)N[C@@H](CCCCN)C(=O)N[C@@H](CCC(N)=O)C(=O)N[C@@H](CC(C)C)C(=O)N[C@@H](C)C(=O)N[C@H](C(=O)N[C@@H](CCCCN)C(=O)N[C@@H](CCCCN)C(=O)N[C@@H](Cc1ccc(O)cc1)C(=O)N[C@@H](CC(C)C)C(=O)N[C@@H](C)C(=O)N[C@@H](C)C(=O)N[C@H](C(=O)N[C@@H](CC(C)C)C(N)=O)C(C)C)C(C)C)[C@@H](C)O [Peptide 9] (Ac-HS[Ala(1H-tetrazol-5-yl)]GIFT[Ala(1H-tetrazol-5-yl)]SYSRYRKQLAVKKYLAAVL-NH2) | improves reduction in nerve density | exhibited axon elongation-promoting effects | improves reduction in corneal sensation | improved the increased SPK score
CC[C@H](C)[C@H](NC(=O)CNC(=O)[C@H](CC(=O)O)NC(=O)[C@H](CO)NC(=O)[C@@H](N)Cc1cnc[nH]1)C(=O)N[C@@H](Cc1ccccc1)C(=O)N[C@H](C(=O)N[C@@H](CC(=O)O)C(=O)N[C@@H](CO)C(=O)N[C@@H](Cc1ccc(O)cc1)C(=O)N[C@@H](CO)C(=O)N[C@@H](CCCNC(=N)N)C(=O)N[C@@H](Cc1ccc(O)cc1)C(=O)N[C@@H](CCCNC(=N)N)C(=O)N[C@@H](CCCCN)C(=O)N[C@@H](CCC(N)=O)C(=O)N[C@@H](CCSC)C(=O)N[C@@H](C)C(=O)N[C@H](C(=O)N[C@@H](CCCCN)C(=O)N[C@@H](CCCCN)C(=O)N[C@@H](Cc1ccc(O)cc1)C(=O)N[C@@H](CC(C)C)C(=O)N[C@@H](C)C(=O)N[C@@H](C)C(=O)N[C@H](C(=O)N[C@@H](CC(C)C)C(N)=O)C(C)C)C(C)C)[C@@H](C)O [Peptide 1, reference compound] | improves reduction in nerve density | exhibited axon elongation-promoting effects | improves reduction in corneal sensation | improved the increased SPK score
